Measured values as given in patent publication US20030068286A1, “Self-tanning compositions having improved coloration using 3,5-dimethoxy-4-hydroxybenzaldehyde and 1,3-dihydroxyacetone” (priority 2001, published 2003).

How the values were obtained:
[1] = tested on: skin; assay: Skin coloration by the Maillard reaction (self-tanning) after application to the skin; type: in vivo; details: for coloration produced in the skin: applied to the skin, melanoidins in the upper layers of skin
Description: The secondary compound, 3,5-dimethoxy-4-hydroxybenzaldehyde, is applied to the skin along with DHA.
Over time, the chemical stability of unprotected DHA is reduced, producing undesirable chemical compounds such as methylglyoxal and formic acid. […] The Maillard reaction produced by the DHA take sup to 5 hours to produce melanoidins, or colored compounds, in the upper layers of the skin. By the time an undesirable coloration develops, the wearer is helpless to remove or adjust the coloration, and must wait until their upper layers of skin are shed in order to rid themselves of the off-color.
FIG. 1 illustrates the chemical structure of 3,5-dimethoxy-4-hydroxybenzaldehyde. Structurally, this compound is a vanillin, or a hydroxymethoxybenzaldehyde.

[2] = Water solubility
Description: The 3,5-dimethoxy-4-hydroxybenzaldehyde, as a water-insoluble aldehyde, is chemically compatible with water-soluble DHA. The compounds exist in two separate phases of a cosmetic formulation, the water phase and the oil phase.

Row | Structure (SMILES) | coloration produced in the skin [1] | Maillard reaction rate relative to DHA ([1]; compared with DHA, attributed to larger molecular size and longer penetration time into the skin) | water solubility [2] | coloration produced on the skin by degraded DHA ([1]; degraded or "stale" DHA applied to the skin) | time of the Maillard reaction to produce melanoidins in the upper layers of the skin ([1]; in vivo)
1 | COc1cc(C=O)cc(OC)c1O [3,5-dimethoxy-4-hydroxybenzaldehyde] | olive-green | slightly slower | water-insoluble |  | 
2 | O=C(CO)CO [DHA, 1,3-dihydroxyacetone] | orange-brown |  |  | orange coloration | up to 5 hours
3 | CCOc1cc(C=O)ccc1O [ethylvanillin] | do not produce similar coloration or any Maillard reaction mechanism |  |  |  | 
4 | COc1cccc(C=O)c1O [ortho-vanillin] | do not produce similar coloration or any Maillard reaction mechanism |  |  |  | 
